This is an account of results in ChEMBL document CHEMBL6071128, “Chalcone-Monoterpene Derivatives from the Buds of Cleistocalyx operculatus and Their Potential as Protein Tyrosine Phosphatase 1B Inhibitors” (J Nat Prod, 2024).

Test [1] addresses T1, Tyrosine-protein phosphatase non-receptor type 1 (Homo sapiens, UniProt P18031).
T1 sequence (P18031 whole entry): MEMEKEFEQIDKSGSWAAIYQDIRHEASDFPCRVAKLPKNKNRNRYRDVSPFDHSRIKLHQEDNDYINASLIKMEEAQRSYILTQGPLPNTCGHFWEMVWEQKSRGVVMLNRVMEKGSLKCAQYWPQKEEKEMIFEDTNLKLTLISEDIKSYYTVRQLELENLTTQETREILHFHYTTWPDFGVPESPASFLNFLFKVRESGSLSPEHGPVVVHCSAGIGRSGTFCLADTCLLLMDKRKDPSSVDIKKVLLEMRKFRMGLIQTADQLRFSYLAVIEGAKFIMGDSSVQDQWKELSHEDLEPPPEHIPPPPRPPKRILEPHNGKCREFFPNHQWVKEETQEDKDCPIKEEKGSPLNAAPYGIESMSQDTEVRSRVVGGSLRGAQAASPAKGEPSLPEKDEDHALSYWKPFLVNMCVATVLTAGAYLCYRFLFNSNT
Description: Binding affinity to human recombinant PTP1B (1 to 322 residues) extracted from Escherichia coli assessed as inhibition constant using p-nitrophenyl phosphate as substrate preincubated for 2 mins followed by substrate addition and measured after 15 mins by absorbance based analysis

The target of test [2] is T1, Tyrosine-protein phosphatase non-receptor type 1. This is another data set of the same source.
Description: Inhibition of human recombinant PTP1B (1 to 322 residues) extracted from Escherichia coli using p-nitrophenyl phosphate as substrate incubated for 30 mins by absorbance based analysis

The term Ki denotes a dissociation constant, usually derived from enzyme kinetics or from competition with a known ligand. Higher therefore signals lower affinity. What is called IC50 is the point on the concentration scale where inhibition reaches its midpoint. Low values mean inhibition by little substance, high ones a need for much substance.

Regarding `COc1c(C)c(O)c(C=O)c(O)c1C(=O)[C@@H]1CC(CCC=C(C)C)=CC[C@H]1c1ccccc1`, in test [1], the affinity, expressed as Ki, was 3.4 µM. This compound also came in with an IC50 in test [2] of 1.4 µM.
With `COc1c(C)c(O)c(C=O)c(O)c1C(=O)[C@H]1CC(CCC=C(C)C)=CC[C@@H]1c1ccccc1`, the affinity in test [1] corresponds to a Ki of 5.9 µM. In addition, the IC50 in test [2] came out at 1.1 µM.
As for `CC1=C2O[C@]34OC(c5ccccc5)CC(O)=C3C(=O)C(C)(C)C(=O)[C@]4(C)CC2=C(O)C(C(=O)/C=C/c2ccccc2)C1=O` (some centres not stated), the affinity in test [1], expressed as Ki, was 5.2 µM. This compound also had an IC50 in test [2] of 1.5 µM.
As for `COc1c(C)c(O)c(C=O)c(O)c1C(=O)/C=C/c1ccccc1`, the IC50 in test [2] was determined as 3.9 µM.
